Test results as given in US12157730B2, “Heteroaryl derivative, method for producing same, and pharmaceutical composition comprising same as effective component” (VORONOI INC., priority 2019, dated 2024).

molecular target: T1, Ba/F3 cell EGFR Exon20 ins NPH (Homo sapiens, UniProt P00533, INS773NPH); assay: Ba/F3 cell proliferation suppression, EGFR Exon20 ins NPH; format: cell-based; conditions: GI50 class; Ba/F3 cell line with NPH inserted at Exon20 of EGFR; 72 hours
T1 construct: expressed in transfected cells; host or cells: Ba/F3
In short: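 Cells were seeded 24 h before dosing and then treated for 72 hours with compound at final concentrations of 0.3 nM to 50 um. Live cells were measured by CellTiter-Glo luminescence, and GI50 values were derived from growth ratio relative to control across three repeats.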

Compound | Ba/F3 (NPH) Activity
C=CC(=O)Nc1cc(Nc2cc(N3OCC[C@@H]3c3cccc(C#N)c3)ncn2)c(OC)cc1N1CCC(N2CCN(C3CC3)[C@H](C)C2)CC1 [Example 126, N-(5-((6-((R)-3-(3-cyanophenyl)isoxazolidine-2-yl)pyrimidine-4-yl)amino)-2-(4-((R)-4-cyclopropyl-3-methylpiperazine-1-yl)piperidine-1-yl)-4-methoxyphenyl) acrylamide] | A (GI50 < 50 nM)
C=CC(=O)Nc1cc(Nc2cc(N3OCC[C@@H]3c3cccc(OC)c3)ncn2)c(OC)cc1N1CCC(N2C[C@@H]3C[C@H]2CO3)CC1 [Example 27, N-(2-(4-((1S,4S)-2-oxa-5-azabicyclo[2.2.1]heptane-5-yl)piperidine-1-yl)-4-methoxy-5-((6-((R)-3-(3-methoxyphenyl)isoxazolidine-2-yl)pyrimidine-4-yl)amino)phenyl) acrylamide] | A (GI50 < 50 nM)
C=CC(=O)Nc1cc(Nc2cc(N3OCC[C@@H]3c3cccc(Cl)c3Cl)ncn2)c(OC)cc1N1CCN(C2CC2)[C@H](C)C1 [compound 564, N-(2-((R)-4-cyclopropyl-3-methylpiperazine-1-yl)-5-((6-((R)-3-(2,3-dichlorophenyl)isoxazolidine-2-yl)pyrimidine-4-yl)amino)-4-methoxyphenyl) acrylamide] | A (GI50 < 50 nM)
C=CC(=O)Nc1cc(Nc2cc(N3OCC[C@@H]3c3cc(F)ccc3F)ncn2)c(OC)cc1N1CCN(C)CC1 [compound 818, N-(5-((6-((R)-3-(2,5-difluorophenyl)isoxazolidine-2-yl)pyrimidine-4-yl)amino)-4-methoxy-2-(4-methylpiperazine-1-yl)phenyl)acrylamide] | A (GI50 < 50 nM)
C=CC(=O)Nc1cc(Nc2cc(N3OCC[C@@H]3c3ccc(F)c(F)c3F)ncn2)c(OC)cc1N1CCC(N2C[C@@H](C)O[C@@H](C)C2)CC1 [compound 576, N-(2-(4-((2S,6R)-2,6-dimethylmorpholino)piperidine-1-yl)-4-methoxy-5-((6-((R)-3-(2,3,4-trifluorophenyl)isoxazolidine-2-yl)pyrimidine-4-yl)amino)phenyl)acrylamide] | A (GI50 < 50 nM)
C=CC(=O)Nc1cc(Nc2cc(N3OCC[C@@H]3c3cccc(C(F)(F)F)c3)ncn2)c(OC)cc1N1CC[C@@H](N2CCOCC2)C1 [compound 506, N-(4-methoxy-2-((R)-3-morpholinopyrolidine-1-yl)-5-((6-((R)-3-(3-(trifluoromethyl)phenyl)isoxazolidine-2-yl)pyrimidine-4-yl)amino)phenyl)acrylamide] | A (GI50 < 50 nM)
C=CC(=O)Nc1cc(Nc2cc(N3OCC[C@@H]3c3cccc(OC)c3)ncn2)c(OC)cc1N1CCC(N2CCN(C(C)C)CC2)CC1 [compound 780, N-(2-(4-(4-isopropylpiperazine-1-yl)piperidine-1-yl)-4-methoxy-5-((6-((R)-3-(3-methoxyphenyl)isoxazolidine-2-yl)pyrimidine-4-yl)amino)phenyl)acrylamide] | B (50 nM ≤ GI50 < 500 nM)
C=CC(=O)Nc1cc(Nc2cc(N3OCC[C@@H]3c3ccc(Cl)c(Cl)c3F)ncn2)c(OC)cc1N1CCC(N2CC[C@@H](N(C)C)C2)CC1 [compound 771, N-(5-((6-((R)-3-(3,4-dichloro-2-fluorophenyl)isoxazolidine-2-yl)pyrimidine-4-yl)amino)-2-(4-((R)-3-(dimethylamino)pyrolidine-1-yl)piperidine-1-yl)-4-methoxyphenyl) acrylamide] | B (50 nM ≤ GI50 < 500 nM)
C=CC(=O)Nc1cc(Nc2cc(N3OCC[C@@H]3Cc3cccc(Cl)c3Cl)ncn2)c(OC)cc1N1CCC(N2C[C@H]3C[C@@H]2CO3)CC1 [compound 1014, N-(2-(4-((1R,4R)-2-oxa-5-azabicyclo [2.2.1]heptane-5-yl)piperidine-1-yl)-5-((6-((S)-3-(2,3-dichlorobenzyl)isoxazolidine-2-yl)pyrimidine-4-yl)amino)-4-methoxyphenyl) acrylamide] | A (GI50 < 50 nM)
C=CC(=O)Nc1cc(Nc2cc(N3OCC[C@@H]3c3ccc(Cl)c(Cl)c3F)ncn2)c(OC)cc1N1CCC(N2CCN(C3COC3)CC2)CC1 [Example 84, N-(5-((6-((R)-3-(3,4-dichloro-2-fluorophenyl)isoxazolidine-2-yl)pyrimidine-4-yl)amino)-4-methoxy-2-(4-(4-(oxetane-3-yl)piperazine-1-yl)piperidine-1-yl)phenyl)acrylamide] | B (50 nM ≤ GI50 < 500 nM)
C=CC(=O)Nc1cc(Nc2cc(N3OCC[C@@H]3c3cccc(F)c3)ncn2)c(OC)cc1N1CCC(N2CCOCC2)CC1 [Example 38, N-(5-((6-((R)-3-(3-fluorophenyl)isoxazolidine-2-yl)pyrimidine-4-yl)amino)-4-methoxy-2-(4-morpholinopiperidine-1-yl)phenyl) acrylamide] | A (GI50 < 50 nM)
C=CC(=O)Nc1cc(Nc2cc(N3OCC[C@@H]3c3cccc(C#N)c3)ncn2)c(OC)cc1N1CCC(N2CCN(C3COC3)CC2)CC1 [Example 196, N-(5-((6-((R)-3-(3-cyanophenyl)isoxazolidine-2-yl)pyrimidine-4-yl)amino)-4-methoxy-2-(4-(4-(oxetane-3-yl)piperazine-1-yl)piperidine-1-yl)phenyl)acrylamide] | A (GI50 < 50 nM)
C=CC(=O)Nc1cc(Nc2cc(N3OCC[C@@H]3c3ccc(Cl)c(F)c3)ncn2)c(OC)cc1N1CCN(CC)CC1 [compound 798, N-(5-((6-((R)-3-(4-chloro-3-fluorophenyl)isoxazolidine-2-yl)pyrimidine-4-yl)amino)-2-(4-ethylpiperazine-1-yl)-4-methoxyphenyl) acrylamide] | A (GI50 < 50 nM)
C=CC(=O)Nc1cc(Nc2cc(N3OCC[C@@H]3c3cc(F)ccc3F)ncn2)c(OC)cc1N1CCC(N2C[C@@H](C)O[C@@H](C)C2)CC1 [compound 714, N-(5-((6-((R)-3-(2,5-difluorophenyl)isoxazolidine-2-yl)pyrimidine-4-yl)amino)-2-(4-((2S,6R)-2,6-dimethylmorpholino)piperidine-1-yl)-4-methoxyphenyl) acrylamide] | A (GI50 < 50 nM)
C=CC(=O)Nc1cc(Nc2cc(N3OCC[C@@H]3c3cc(F)cc(F)c3)ncn2)c(OC)cc1N1CCC(N2C[C@@H](C)N(C3CC3)C[C@@H]2C)CC1 [Example 108, N-(2-(4-((2S,5R)-4-cyclopropyl-2,5-dimethylpiperazine-1-yl)piperidine-1-yl)-5-((6-((R)-3-(3,5-difluorophenyl)isoxazolidine-2-yl)pyrimidine-4-yl)amino)-4-methoxyphenyl) acrylamide] | A (GI50 < 50 nM)
C=CC(=O)Nc1cc(Nc2cc(N3OCC[C@@H]3c3cccc(F)c3Cl)ncn2)c(OC)cc1N1CCC(N2CCN(C3CC3)C[C@H]2C)CC1 [Example 143, N-(5-((6-((R)-3-(2-chloro-3-fluorophenyl)isoxazolidine-2-yl)pyrimidine-4-yl)amino)-2-(4-((R)-4-cyclopropyl-2-methylpiperazine-1-yl)piperidine-1-yl)-4-methoxyphenyl) acrylamide] | A (GI50 < 50 nM)
C=CC(=O)Nc1cc(Nc2cc(N3OCC[C@@H]3c3cc(F)cc(F)c3)ncn2)c(OC)cc1N1CCC(N2CCOC[C@@H]2C)CC1 [compound 843, N-(5-((6-((R)-3-(3,5-difluorophenyl)isoxazolidine-2-yl)pyrimidine-4-yl)amino)-4-methoxy-2-(4-((S)-3-methylmorpholino)piperidine-1-yl)phenyl) acrylamide] | A (GI50 < 50 nM)
C=CC(=O)Nc1cc(Nc2cc(N3OCC[C@@H]3c3ccc(F)cc3F)ncn2)c(OC)cc1N1CCC(N2CCN(CC3CC3)CC2)CC1 [Example 203, N-(2-(4-(4-(cyclopropylmethyl)piperazine-1-yl)piperidine-1-yl)-5-((6-((R)-3-(2,4-difluorophenyl)isoxazolidine-2-yl)pyrimidine-4-yl)amino)-4-methoxyphenyl) acrylamide] | A (GI50 < 50 nM)
C=CC(=O)Nc1cc(Nc2cc(N3OCC[C@@H]3Cc3cccc(Cl)c3OC)ncn2)c(OC)cc1N1CCC(N2C[C@H]3C[C@@H]2CO3)CC1 [compound 1055, N-(2-(4-((1R,4R)-2-oxa-5-azabicyclo [2.2.1]heptane-5-yl)piperidine-1-yl)-5-((6-((S)-3-(3-chloro-2-methoxybenzyl)isoxazolidine-2-yl)pyrimidine-4-yl)amino)-4-methoxyphenyl) acrylamide] | A (GI50 < 50 nM)
C=CC(=O)Nc1cc(Nc2cc(N3OCC[C@@H]3c3ccc(F)cc3F)ncn2)c(OC)cc1N1CCN(C2CCN(C)CC2)CC1 [compound 345, N-(5-((6-((R)-3-(2,4-difluorophenyl)isoxazolidine-2-yl)pyrimidine-4-yl)amino)-4-methoxy-2-(4-(1-methylpiperidine-4-yl)piperazine-1-yl)phenyl)acrylamide] | A (GI50 < 50 nM)
C=CC(=O)Nc1cc(Nc2cc(N3OCC[C@@H]3c3cccc(Cl)c3F)ncn2)c(OC)cc1N1CCC(N2CCN(C3CC3)CC2)CC1 [Example 62, N-(5-((6-((R)-3-(3-chloro-2-fluorophenyl)isoxazolidine-2-yl)pyrimidine-4-yl)amino)-2-(4-(4-cyclopropylpiperazine-1-yl)piperidine-1-yl)-4-methoxyphenyl) acrylamide] | A (GI50 < 50 nM)
C=CC(=O)Nc1cc(Nc2cc(N3OCC[C@@H]3c3ccc(F)c(Cl)c3)ncn2)c(OC)cc1N1CCC(N2CCN(C(C)C)CC2)CC1 [compound 715, N-(5-((6-((R)-3-(3-chloro-4-fluorophenyl)isoxazolidine-2-yl)pyrimidine-4-yl)amino)-2-(4-(4-isopropylpiperazine-1-yl)piperidine-1-yl)-4-methoxyphenyl) acrylamide] | A (GI50 < 50 nM)
